Experimental data published in patent publication US20160166701A1, “DELIVERY COMPOSITION FOR TOPICAL APPLICATIONS AND INJECTIONS AND OPHTHALMIC FORMULATIONS, METHODS FOR MANUFACTURING THEREOF, AND METHODS FOR DELIVERY OF A DRUG-DELIVERY COMPOSITION” (THERAKINE BIODELIVERY GMBH, priority 2013, published 2016).

What was measured:
[1] = system: rabbits undergoing photorefractive keratectomy (PRK) surgery; assay: Rabbit PRK study of canakinumab incorporated in the matrix formulation (Example 3); type: in vivo
Procedure: In Example 3, a further rabbit study, similar to the design of Example 2 above, was performed using Novartis's canakinumab, a fully human antibody against Il-1 beta, incorporated in the matrix formulation using hyaluronic acid microparticles enhancing corneal adherence.
Even though it is described that canakinumab does differ from rabbit IL-1 in one amino acid, this study was performed to study the adherence characteristics, pk, and safety/tolerability of EpiKine delivering a different Il-1 inhibitor.

[2] = system: rabbits following photorefractive keratectomy (PRK); conditions: rabbit, in vivo; cited from earlier work
[3] = system: freshly isolated and subcultured corneal fibroblasts; assay: α-SMA positive corneal fibroblasts in normal or serum-free media, confocal microscopy on day 4 (Example 4); type: cell-based, rabbit; conditions: serum-free media, 30 μg/mL, both subcultured and freshly isolated cells
Procedure: Since there is a variable amount of growth factors such as IL-1 in serum, the presence of serum may offset the effect of blocking IL-1 with the matrix formulation. In this experiment, freshly isolated and subcultured corneal fibroblasts (P2-P5) were seeded at a density of 5,000 cells/cm^2 and cultured with 30 μg/mL with human recombinant IL-1ra in either normal (NM) or Serum-Free (SF) media. Cells were analyzed on day 4 for levels of α-SMA with confocal microscopy. Cell numbers in serum-free samples were too low to recover enough protein for Western Blot analysis. 5 individuals independently counted 3 images of each of 3 samples per condition for α-SMA positive cells. Serum-free media induced lower α-SMA expression in freshly isolated cells but had no effect on subcultured cells. […] This finding supports that the phenotype of subcultured cells can be influenced by the matrix formulation.
Percentage of freshly isolated (FI) and subcultured (SC) RCFs expressing α-SMA as determined from confocal immunofluorescence on day 4 in the following conditions: normal media (NM), normal media with IL-1ra (NM+IL-1ra), serum-free (SF), and serum-free with IL-1ra (SF+IL-1ra). SF conditions decreased α-SMA levels in FI but not in SC cells. […] Data represents mean+/−standard error with n=3 (* indicate p<<0.001, θ indicate p<0.05, φ indicate p<0.005).

[4] = system: rabbits undergoing photorefractive keratectomy (PRK) surgery; assay: Rabbit photorefractive keratectomy (PRK) study of matrix formulation with IL-1ra versus steroid control (Example 2); type: in vivo; conditions: lower doses of IL-1ra and steroid group compared with higher dose of IL-1ra and control group, week 3; FIG. 6
Procedure: In Example 2; various concentrations of IL-1ra, i.e. 50 mg/ml or 2.5 mg/drop, 25 mg/ml or 1.25 mg/drop, and 5 mg/ml or 0.25 mg/drop (solutions A-C), were compared to a standard steroid control (fluorometholone) in rabbits undergoing photorefractive keratectomy (PRK) surgery. […] The final hyaluronic acid concentration (i.e. the hyaluronic acid concentration in the final matrix formulation) was 0.526% w/w, based on the total weight of the matrix formulation.
Each rabbit received PRK in both eyes at a 100 μm ablation depth. In each rabbit, the right eye (OD) served as the treated eye while the left eye (OS) served as control. […]
As before corneal clarity, forward scatter and haze measurement were used as out-come parameters. Haze formation and scattering was assessed via slit lamp exam by an ophthalmologist. The timing for re-epithelization to occur in both the treatment and control groups was measured.
In addition Pentacam technology was used to image the anterior segment of the eye via a rotating Scheimpflug process that supplied pictures in three dimensions, allowing for a precise measurement of the shape, thickness, and the contour of the cornea. Using this method, the center of the cornea, which is most critical for refractive surgery planning, is measured precisely because of this rotational imaging process. […]

[5] = every data point, not statistically significant

Row | Molecule | objective haze (HRT stromal haze) [1, 5] | serious adverse events such as infections or worsening infections [2] | α-SMA expression [3] | Pentacam density measurements [4] | epithelial closure ([1]; 1.25 mg concentration, within the canakinumab concentrations) | foam layer thickness (histologic analysis) ([1]; 2.5 mg and 1.25 mg concentration compared to 0.25 mg concentration) | objective haze (Pentacam) densitometry values ([1]; 2.5 mg concentration group, each time point) | corneal haze ([1]; 2.5 mg concentration, almost all data points, not statistically significant) | subjective haze (slit lamp exam) ([1]; 2.5 mg concentration, within the canakinumab concentrations) | objective haze (HRT stromal haze) ([1]; 2.5 mg, compared to control, week 2) | epithelial closure ([1]; all concentrations, compared to steroid and control group, not statistically significant) | adverse events ([1]; any of the concentrations, preliminary results) | subjective haze (slit lamp exam) ([1]; compared to the control group) | safety compared to steroids ([1]; time frame administered in this study) | subjective haze (slit lamp exam) ([1]; weeks 2, 4, 5, not statistically significant)
1 | CC(=O)[C@@]1(O)CC[C@H]2[C@@H]3C[C@H](C)C4=CC(=O)C=C[C@]4(C)[C@@]3(F)[C@@H](O)C[C@@]21C [Steroids, fluorometholone, reference compound] | least haze |  |  |  |  |  |  |  |  |  |  |  |  |  | 
2 | IL-1ra: IL-1ra is a biologic agent (protein) that blocks IL-1 |  | No serious adverse events | significantly decreased | statistically significant difference |  |  |  |  |  |  |  |  |  |  | 
3 | canakinumab | less haze than the control group |  |  |  | trend for faster closure | thinner foam layers | trend for lower densitometry values | trend towards lower corneal haze | trend for lower subjective haze values | statistically significant less haze | took longer to heal | No adverse events | as effective as steroids | non-inferior to steroids | lower haze
